Data set [1] concerns C57BL/6 mice. Nature of the data set: Food consumption in the IA2BC study. Conditions: cycle 2, Group 7F, MEAI/PEA 0/25 mg/kg. In kind it is in vivo. The protocol:
Animal food consumption was performed twice before first dosing (during alcohol addition, and without alcohol addition), during dosing period at each alcohol addition (six times in total) and before termination (without alcohol addition).
The Food consumption was recorded in each cage for a […] period. Determinations of food consumption (calculated value) were based on a provided diet placed in hoppers and the remaining unused diet weighed.
Food consumption was monitored per each mouse in each individual cage for 24 h during Alcohol addition time, by measuring the weight of food before and after 24 hours. The consumption of food was measured during all MEAI treatment days, in both cycles. The mean value for each group during each consumption day was calculated as fold change from baseline (i.e. food consumption measured before MEAI treatment), per each animal. The fold change values of each MEAI/PEA treated group was compared to the vehicle groups (1F/6F/7F) and statistical analysis was performed.

Data set [2] concerns C57BL/6 mice. The data set is described as follows: Mortality and gross pathology in the IA2BC study. In kind it is in vivo. The protocol:
Morbidity and mortality checks were performed daily. Animals that were sacrificed during the study were considered for the interpretation of study results as animals that died during the study. In case of mortality before the study's scheduled termination, gross pathology evaluation was performed as close as possible to the time of death. The time of death was recorded as precisely as possible.
Observations documented any irregularities, such as changes in local injection site, skin, fur, eyes, mucous membranes, respiratory, occurrence of secretions and excretions (e.g. diarrhea) and autonomic activity (e.g. lacrimation, salivation, piloerection, pupil size, unusual respiratory pattern). Changes in gait, posture, and response to handling, as the presence of bizarre behavior, tremors, convulsions, sleep, and coma were also included. All observed abnormalities, toxic signs, moribund condition, and pre-terminal deaths were recorded.
The animals were evaluated for macroscopic findings during gross pathology.

Data set [3] relates to C57BL/6 mice. The data set is described as follows: Alcohol preference (alcohol / total fluids) in the IA2BC study. It is filed as in vivo. On the procedure: The mean alcohol preference, which was defined as the ratio between alcohol weight (g/kg/24 h) divided by the total weight of water and alcohol consumed by the animals (g/kg/24 h) was evaluated.
For data set [4], the system named is C57BL/6 mice. The data set is described as follows: Intermittent access to 20% Alcohol in two-bottle choice (IA2BC) model: alcohol consumption. In kind it is in vivo. On the procedure:
The principle of the study is based on Intermittent access to 20% Alcohol in two-bottle choice (IA2BC) model in mice. The mice were provided during the whole Study with two bottles: one bottle of water, and another bottle of 20% ethanol solution, which were removed and replaced after 24 hours with another buttle of water, for additional 24 hours. In total, the mice were subjected to 20% ethanol 24 hours, three times a week, for seven-eight weeks (21-22 alcohol consumption days).
The alcohol consumption was measured after each 24 of alcohol exposure (by weighing the alcohol buttle before and after). Following four weeks of intermittent access to 20% alcohol the mice were allocated to groups according to their alcohol consumption, to achieve balanced groups. To examine the effect of treatment in reducing alcohol consumption, mice were treated with the Test Item/s or Vehicle daily during weeks 6-7/8. […]
Animal alcohol and water consumption was recorded for each cage and was done for a 24±2 hours period starting at Day 1, three times a week thereafter until the end of the Study.
Intermittent access to 20% Alcohol in two-bottle choice (IA2BC) model in mice. The mice were subjected to 20% ethanol 24 hours, three times a week, for five weeks (15 alcohol consumption days), and the alcohol consumption was measured by weight. […]

Data set [5] is described as follows: Body weight in the IA2BC study. In kind it is in vivo, mice. Particulars: group 4F (MEAI mid dose, 60 mg/kg), only during Day 40 of cycle 1; *p<0.05. On the procedure: Body weight was recorded upon arrival, before study initiation, three times a week thereafter and at termination.
Body weight (BW) was monitored every other day in all animals of all groups.

Regarding `CCCCCCCCCCCCCCCC(=O)NCCO` [PEA, N-(2-hydroxyethyl) hexadecanamide], in data set [1], the “reduction of food consumption compared to own baseline” value was 22%.

Regarding `COc1ccc2c(c1)CC(N)C2` (centres unmarked) [MEAI, 5-methoxy-2-aminoindan], the mortality result in data set [2] (high doses treated groups, after prolonged alcohol consumption) is listed as “four”. Also, the “gross pathology findings in liver, kidneys, heart and spleen (bright color and/or enlarged)” value in data set [2] (observed in all groups including vehicle treated) is “most likely related to the alcohol consumption and not to the MEAI treatment”. In data set [3] (cycle 1, 100 mg/kg MEAI), the “reduction of alcohol preference compared to control, significance” value is recorded as “statistically significant”. Also, in data set [3] (cycle 1, MEAI 20-100 mg/kg), the “mean alcohol preference compared to control groups” value is on record as “reduced in a dose dependent manner”. The “reducing alcohol consumption of the treated animals” value in data set [4] (MEAI 20-100 mg/kg PO daily, weeks 6-7/8, treated vs control) is given as “significant dose dependent effect”. Further, the “alcohol consumption during treatment compared to consumption before treatment” value in data set [4] (cycle 1, MEAI at a dose of 40 mg/kg and at higher doses PO, mean of six alcohol days, ** p<0.01, *** p<0.001) is reported as “significantly reduced”. Also, the “body weight compared to control group” value in data set [5] is given as “significantly lower”.

For the origin of these results see patent publication US20250302773A1, “CO[…] AND N-ACYLETH[…] USES THEREOF” (CLEARMIND MEDICINE INC., priority 2022, published 2025).
